Legend:
Assay in all cases: filter binding kinase assay
Assay type in all cases: biochemical
AURKB = target: T1, AURKB (Homo sapiens, UniProt Q96GD4); conditions: derived from % inhibition at 1 μM
T1 construct: purchased
Outline: (§1)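 Kinase activity is measured at room temperature by filter binding, with incorporated radiolabel counted after acid termination. A 5-minute preincubation of compound, enzyme and substrate precedes addition of ATP from a kinase-dependent stock (5, 20 or 50 […]).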

EPHB3 = target: T2, EPHB3 (Homo sapiens, UniProt P54753); conditions: derived from % inhibition at 1 μM
T2 construct: purchased
T2 sequence (P54753 34-998): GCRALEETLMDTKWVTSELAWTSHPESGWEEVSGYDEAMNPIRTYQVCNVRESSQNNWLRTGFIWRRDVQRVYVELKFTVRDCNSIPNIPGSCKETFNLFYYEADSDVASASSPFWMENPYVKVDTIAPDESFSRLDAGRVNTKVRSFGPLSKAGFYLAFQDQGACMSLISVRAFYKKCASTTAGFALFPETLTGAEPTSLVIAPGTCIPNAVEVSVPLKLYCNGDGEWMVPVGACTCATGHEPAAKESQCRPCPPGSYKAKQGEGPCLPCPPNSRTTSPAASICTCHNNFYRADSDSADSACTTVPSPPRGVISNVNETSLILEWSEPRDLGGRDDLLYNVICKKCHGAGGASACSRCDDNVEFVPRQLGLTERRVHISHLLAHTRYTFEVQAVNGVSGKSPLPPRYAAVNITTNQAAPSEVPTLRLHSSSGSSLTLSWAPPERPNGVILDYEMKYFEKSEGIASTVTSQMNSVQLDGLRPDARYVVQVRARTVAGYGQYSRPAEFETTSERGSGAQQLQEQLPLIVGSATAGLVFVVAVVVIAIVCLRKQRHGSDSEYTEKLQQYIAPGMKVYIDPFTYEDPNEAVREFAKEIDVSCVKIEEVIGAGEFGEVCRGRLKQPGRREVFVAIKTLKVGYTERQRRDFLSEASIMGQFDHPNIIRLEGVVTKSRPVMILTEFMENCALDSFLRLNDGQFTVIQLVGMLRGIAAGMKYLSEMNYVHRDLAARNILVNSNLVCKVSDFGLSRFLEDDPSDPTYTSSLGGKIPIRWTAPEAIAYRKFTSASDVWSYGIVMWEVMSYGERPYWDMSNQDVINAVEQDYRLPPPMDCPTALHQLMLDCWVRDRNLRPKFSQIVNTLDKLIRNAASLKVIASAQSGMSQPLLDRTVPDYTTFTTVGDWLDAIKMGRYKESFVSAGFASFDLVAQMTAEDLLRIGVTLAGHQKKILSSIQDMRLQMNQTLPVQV
Outline: as §1

GSK3B (GSK3b) = target: T3, GSK3B (GSK3b) (Homo sapiens, UniProt P49841); conditions: for IC50: derived from % inhibition at 1 μM
T3 construct: purchased
Outline: as §1

HIPK3 = target: T4, HIPK3 (Homo sapiens, UniProt Q9H422); conditions: derived from % inhibition at 1 μM
T4 construct: purchased
Outline: as §1

IKBKE = target: T5, IKBKE (Homo sapiens, UniProt Q14164); conditions: derived from % inhibition at 1 μM
T5 construct: purchased
T5 sequence (Q14164 1-716): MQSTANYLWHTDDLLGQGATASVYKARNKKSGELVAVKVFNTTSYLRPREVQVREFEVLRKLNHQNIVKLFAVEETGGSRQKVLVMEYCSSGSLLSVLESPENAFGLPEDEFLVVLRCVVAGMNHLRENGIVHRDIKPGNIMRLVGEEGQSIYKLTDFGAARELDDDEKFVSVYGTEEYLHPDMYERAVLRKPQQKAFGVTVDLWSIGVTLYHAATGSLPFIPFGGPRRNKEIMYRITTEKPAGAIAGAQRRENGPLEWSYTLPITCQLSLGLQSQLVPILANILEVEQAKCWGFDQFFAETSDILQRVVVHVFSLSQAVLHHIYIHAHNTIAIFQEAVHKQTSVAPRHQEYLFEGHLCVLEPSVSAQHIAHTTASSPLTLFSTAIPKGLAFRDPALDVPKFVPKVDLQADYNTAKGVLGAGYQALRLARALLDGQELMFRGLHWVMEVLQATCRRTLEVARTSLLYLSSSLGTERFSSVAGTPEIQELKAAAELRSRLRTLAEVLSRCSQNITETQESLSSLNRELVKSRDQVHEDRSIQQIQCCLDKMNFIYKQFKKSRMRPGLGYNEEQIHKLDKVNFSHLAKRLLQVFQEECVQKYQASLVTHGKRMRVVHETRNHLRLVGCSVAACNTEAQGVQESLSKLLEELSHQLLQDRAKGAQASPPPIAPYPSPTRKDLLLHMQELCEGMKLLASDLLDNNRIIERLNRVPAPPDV
Outline: as §1

MAP3K9 = target: T6, MAP3K9 (Homo sapiens, UniProt P80192); conditions: derived from % inhibition at 1 μM
T6 construct: purchased
Outline: as §1

MAPK11 = target: T7, MAPK11 (Homo sapiens, UniProt Q15759); conditions: derived from % inhibition at 1 μM
T7 construct: purchased
Outline: as §1

MAPK12 = target: T8, MAPK12 (Homo sapiens, UniProt P53778); conditions: derived from % inhibition at 1 μM
T8 construct: purchased
T8 sequence (P53778 1-367): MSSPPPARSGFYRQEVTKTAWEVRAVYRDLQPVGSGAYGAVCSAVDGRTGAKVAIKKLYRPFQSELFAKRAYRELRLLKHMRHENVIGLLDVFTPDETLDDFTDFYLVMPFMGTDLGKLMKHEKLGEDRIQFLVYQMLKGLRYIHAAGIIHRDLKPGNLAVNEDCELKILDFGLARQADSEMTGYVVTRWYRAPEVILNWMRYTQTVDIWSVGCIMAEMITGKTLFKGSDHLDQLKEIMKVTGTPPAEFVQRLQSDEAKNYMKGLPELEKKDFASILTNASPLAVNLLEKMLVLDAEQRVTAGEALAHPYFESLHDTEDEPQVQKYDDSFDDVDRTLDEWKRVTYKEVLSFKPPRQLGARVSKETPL
Outline: as §1

MINK1 = target: T9, MINK1 (Homo sapiens, UniProt Q8N4C8); conditions: derived from % inhibition at 1 μM
T9 construct: purchased
Outline: as §1

PAK4 (PAK-4) = target: T10, PAK4 (PAK-4) (Homo sapiens, UniProt O96013); conditions: for IC50: derived from % inhibition at 1 μM
T10 construct: purchased
Outline: as §1

PIM1 = target: T11, PIM1 (Homo sapiens, UniProt P11309); conditions: derived from % inhibition at 1 μM
T11 construct: purchased
Outline: as §1

RPS6KA5 = target: T12, RPS6KA5 (Homo sapiens, UniProt O75582); conditions: derived from % inhibition at 1 μM
T12 construct: purchased
Outline: as §1

T4 sequence (Q9H422 whole entry, species assumed): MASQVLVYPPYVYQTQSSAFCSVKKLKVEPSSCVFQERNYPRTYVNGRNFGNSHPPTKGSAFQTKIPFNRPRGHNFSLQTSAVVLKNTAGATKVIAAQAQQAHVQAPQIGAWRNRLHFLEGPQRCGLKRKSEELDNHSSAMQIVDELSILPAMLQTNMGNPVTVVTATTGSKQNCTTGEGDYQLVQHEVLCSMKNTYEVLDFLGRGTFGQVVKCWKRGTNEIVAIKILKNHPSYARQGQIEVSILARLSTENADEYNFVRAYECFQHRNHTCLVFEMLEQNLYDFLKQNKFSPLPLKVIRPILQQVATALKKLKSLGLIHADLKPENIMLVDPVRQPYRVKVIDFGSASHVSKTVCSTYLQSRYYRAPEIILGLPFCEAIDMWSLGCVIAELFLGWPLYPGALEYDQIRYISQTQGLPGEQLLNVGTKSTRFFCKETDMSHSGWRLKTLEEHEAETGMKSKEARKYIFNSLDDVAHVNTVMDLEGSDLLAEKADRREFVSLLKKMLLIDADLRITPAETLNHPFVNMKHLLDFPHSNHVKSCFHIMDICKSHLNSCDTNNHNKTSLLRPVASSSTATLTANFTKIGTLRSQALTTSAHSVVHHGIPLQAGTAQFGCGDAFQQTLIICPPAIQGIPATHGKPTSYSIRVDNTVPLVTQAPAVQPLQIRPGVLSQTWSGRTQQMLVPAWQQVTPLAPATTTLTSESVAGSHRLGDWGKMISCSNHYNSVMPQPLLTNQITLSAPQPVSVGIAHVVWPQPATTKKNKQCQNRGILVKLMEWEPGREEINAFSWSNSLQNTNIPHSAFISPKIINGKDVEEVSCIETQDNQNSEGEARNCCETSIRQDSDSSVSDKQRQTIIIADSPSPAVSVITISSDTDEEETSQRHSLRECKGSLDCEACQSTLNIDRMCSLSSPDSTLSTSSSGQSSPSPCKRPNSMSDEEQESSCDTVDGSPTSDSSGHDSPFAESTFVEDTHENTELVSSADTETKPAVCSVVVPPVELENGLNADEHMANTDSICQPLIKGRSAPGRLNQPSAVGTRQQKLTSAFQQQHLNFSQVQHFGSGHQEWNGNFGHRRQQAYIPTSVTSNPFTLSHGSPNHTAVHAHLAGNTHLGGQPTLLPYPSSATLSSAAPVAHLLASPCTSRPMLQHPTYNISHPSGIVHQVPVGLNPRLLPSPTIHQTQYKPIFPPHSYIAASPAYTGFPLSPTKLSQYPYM
T3 sequence (P49841 whole entry, species assumed): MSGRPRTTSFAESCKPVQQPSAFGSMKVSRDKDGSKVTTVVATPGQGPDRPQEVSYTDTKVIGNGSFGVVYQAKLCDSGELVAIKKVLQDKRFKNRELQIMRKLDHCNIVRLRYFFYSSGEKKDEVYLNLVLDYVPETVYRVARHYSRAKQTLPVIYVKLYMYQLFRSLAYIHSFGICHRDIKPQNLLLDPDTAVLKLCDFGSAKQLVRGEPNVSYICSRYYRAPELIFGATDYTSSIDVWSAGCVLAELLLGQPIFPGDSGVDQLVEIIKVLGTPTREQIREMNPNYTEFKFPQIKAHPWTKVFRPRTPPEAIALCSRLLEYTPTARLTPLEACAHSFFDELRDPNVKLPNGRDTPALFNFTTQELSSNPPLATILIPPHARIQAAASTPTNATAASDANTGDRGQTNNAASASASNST
T9 sequence (Q8N4C8 whole entry, species assumed): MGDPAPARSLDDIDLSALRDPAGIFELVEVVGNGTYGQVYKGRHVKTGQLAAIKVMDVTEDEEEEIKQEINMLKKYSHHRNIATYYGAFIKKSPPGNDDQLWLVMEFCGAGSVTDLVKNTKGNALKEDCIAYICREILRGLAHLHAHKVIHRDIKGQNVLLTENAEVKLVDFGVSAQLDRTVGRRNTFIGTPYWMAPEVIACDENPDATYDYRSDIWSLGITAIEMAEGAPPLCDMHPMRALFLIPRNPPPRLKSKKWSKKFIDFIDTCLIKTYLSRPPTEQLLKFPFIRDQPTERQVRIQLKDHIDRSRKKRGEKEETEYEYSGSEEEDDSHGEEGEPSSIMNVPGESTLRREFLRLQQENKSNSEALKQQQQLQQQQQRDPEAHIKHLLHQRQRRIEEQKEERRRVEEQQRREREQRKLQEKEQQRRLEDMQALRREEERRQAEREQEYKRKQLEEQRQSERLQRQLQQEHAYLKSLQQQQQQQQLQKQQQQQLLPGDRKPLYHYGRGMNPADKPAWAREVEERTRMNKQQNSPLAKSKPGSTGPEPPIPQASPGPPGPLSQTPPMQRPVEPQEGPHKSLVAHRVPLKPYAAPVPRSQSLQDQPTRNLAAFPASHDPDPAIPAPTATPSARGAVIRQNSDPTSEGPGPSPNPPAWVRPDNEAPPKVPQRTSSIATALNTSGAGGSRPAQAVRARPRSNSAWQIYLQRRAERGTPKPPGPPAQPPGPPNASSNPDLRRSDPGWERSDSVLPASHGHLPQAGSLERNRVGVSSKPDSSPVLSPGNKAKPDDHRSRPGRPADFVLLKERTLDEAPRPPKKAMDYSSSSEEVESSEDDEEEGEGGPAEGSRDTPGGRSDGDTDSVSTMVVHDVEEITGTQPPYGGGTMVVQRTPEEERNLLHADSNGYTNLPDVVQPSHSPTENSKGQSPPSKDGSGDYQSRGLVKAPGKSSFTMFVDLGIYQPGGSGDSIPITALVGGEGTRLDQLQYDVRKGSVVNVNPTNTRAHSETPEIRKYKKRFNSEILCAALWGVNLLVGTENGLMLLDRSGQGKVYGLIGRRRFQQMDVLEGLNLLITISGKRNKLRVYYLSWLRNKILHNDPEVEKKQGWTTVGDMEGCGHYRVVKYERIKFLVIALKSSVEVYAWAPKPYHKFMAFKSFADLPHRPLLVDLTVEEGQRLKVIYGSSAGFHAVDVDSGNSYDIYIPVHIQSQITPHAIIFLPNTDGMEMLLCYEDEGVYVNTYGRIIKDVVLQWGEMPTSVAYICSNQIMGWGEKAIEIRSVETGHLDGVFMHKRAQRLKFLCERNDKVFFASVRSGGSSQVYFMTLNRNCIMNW
T10 sequence (O96013 whole entry, species assumed): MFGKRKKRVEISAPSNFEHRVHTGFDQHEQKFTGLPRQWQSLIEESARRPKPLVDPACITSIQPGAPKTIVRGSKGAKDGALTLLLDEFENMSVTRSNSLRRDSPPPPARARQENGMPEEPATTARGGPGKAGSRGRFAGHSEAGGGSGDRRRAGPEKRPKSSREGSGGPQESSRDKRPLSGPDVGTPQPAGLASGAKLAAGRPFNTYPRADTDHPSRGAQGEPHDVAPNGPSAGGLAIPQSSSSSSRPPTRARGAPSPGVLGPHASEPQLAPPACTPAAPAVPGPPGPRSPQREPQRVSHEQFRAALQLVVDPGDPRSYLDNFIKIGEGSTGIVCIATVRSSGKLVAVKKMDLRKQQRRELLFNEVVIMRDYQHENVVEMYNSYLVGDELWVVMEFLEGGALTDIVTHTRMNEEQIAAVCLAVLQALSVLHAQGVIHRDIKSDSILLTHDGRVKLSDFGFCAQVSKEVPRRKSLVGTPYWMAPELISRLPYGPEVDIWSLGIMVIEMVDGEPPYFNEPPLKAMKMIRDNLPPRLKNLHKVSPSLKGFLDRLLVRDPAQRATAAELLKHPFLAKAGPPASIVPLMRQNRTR
T1 sequence (Q96GD4 whole entry, species assumed): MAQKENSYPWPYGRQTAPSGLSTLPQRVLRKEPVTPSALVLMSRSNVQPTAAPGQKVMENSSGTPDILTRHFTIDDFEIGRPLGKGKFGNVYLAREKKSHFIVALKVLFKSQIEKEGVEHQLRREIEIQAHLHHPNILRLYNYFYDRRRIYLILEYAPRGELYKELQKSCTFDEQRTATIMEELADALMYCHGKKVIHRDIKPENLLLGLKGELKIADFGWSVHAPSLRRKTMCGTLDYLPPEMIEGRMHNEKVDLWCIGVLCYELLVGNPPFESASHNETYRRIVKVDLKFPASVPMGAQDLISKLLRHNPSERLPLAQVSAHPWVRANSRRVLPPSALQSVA
T11 sequence (P11309 whole entry, species assumed): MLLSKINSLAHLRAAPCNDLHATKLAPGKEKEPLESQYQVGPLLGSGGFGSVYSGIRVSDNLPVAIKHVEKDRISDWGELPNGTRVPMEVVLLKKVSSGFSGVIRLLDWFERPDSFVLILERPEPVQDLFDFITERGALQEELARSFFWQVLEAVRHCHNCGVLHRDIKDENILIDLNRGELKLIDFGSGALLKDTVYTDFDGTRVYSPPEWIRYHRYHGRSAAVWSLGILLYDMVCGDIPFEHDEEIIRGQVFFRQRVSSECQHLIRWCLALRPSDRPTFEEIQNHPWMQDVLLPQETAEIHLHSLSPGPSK
T7 sequence (Q15759 whole entry, species assumed): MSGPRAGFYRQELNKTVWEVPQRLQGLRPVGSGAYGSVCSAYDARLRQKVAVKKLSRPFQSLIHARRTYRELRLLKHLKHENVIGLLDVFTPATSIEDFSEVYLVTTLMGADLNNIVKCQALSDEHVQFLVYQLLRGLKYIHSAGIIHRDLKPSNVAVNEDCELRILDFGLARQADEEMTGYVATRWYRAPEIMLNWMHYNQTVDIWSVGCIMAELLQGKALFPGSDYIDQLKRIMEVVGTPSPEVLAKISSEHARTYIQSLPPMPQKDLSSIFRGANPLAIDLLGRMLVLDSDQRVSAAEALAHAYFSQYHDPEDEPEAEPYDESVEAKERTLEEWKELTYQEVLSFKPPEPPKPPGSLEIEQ

Structure (SMILES)	IC50 (AURKB)	IC50 (EPHB3)	IC50 (GSK3B (GSK3b))	IC50 (HIPK3)	IC50 (IKBKE)	IC50 (MAP3K9)	IC50 (MAPK11)	IC50 (MAPK12)	IC50 (MINK1)	IC50 (PAK4 (PAK-4))	IC50 (PIM1)	IC50 (RPS6KA5)	remaining activity at 1 µM (GSK3B (GSK3b); read-out: residual kinase activity GSK3b)	remaining activity at 1 µM (PAK4 (PAK-4); read-out: residual kinase activity PAK-4)
CC(C)(C)OC(=O)Nc1ncsc1C#CCN1C(=O)c2ccccc2C1=O [Compound A26, tert-butyl{5-[3-(1,3-dioxo-1,3-dihydroisoindol-2-yl)prop-1-ynyl]-thiazol-4-yl}carbamate]	> 1 µM	1 to 10 µM	1 to 10 µM	10 to 100 µM	10 to 100 µM	1 to 10 µM	> 1 µM	10 to 100 µM	10 to 100 µM	1 to 10 µM	10 to 100 µM	> 1 µM	–	–
Nc1ncsc1C#Cc1cccc(O)c1 [Compound A27, 3-(4-aminothiazol-5-ylethynyl)phenol]	10 to 100 µM	1 to 10 µM	1 to 10 µM	1 to 10 µM	> 1 µM	1 to 10 µM	1 to 10 µM	1 to 10 µM	1 to 10 µM	> 1 µM	1 to 10 µM	10 to 100 µM	–	–
c1ccc(Cc2c[nH]c3ncsc23)cc1 [Compound A7, 6-benzyl-4H-pyrrolo[2,3-d]thiazole]	1 to 10 µM	> 1 µM	1 to 10 µM	1 to 10 µM	10 to 100 µM	1 to 10 µM	1 to 10 µM	> 1 µM	1 to 10 µM	> 1 µM	10 to 100 µM	1 to 10 µM	–	–
CC(C)(C)OC(=O)Nc1nc(-c2ccncc2)sc1C#CCN1CCOCC1 [Compound A25, tert-butyl[5-(3-morpholin-4-ylprop-1-ynyl)-2-pyridin-4-ylthiazol-4-yl]-carbamate]	> 1 µM	> 1 µM	> 1 µM	10 to 100 µM	1 to 10 µM	> 1 µM	> 1 µM	10 to 100 µM	10 to 100 µM	> 1 µM	> 1 µM	10 to 100 µM	–	–
Nc1ncsc1C#Cc1cnc2[nH]ccc2c1 [Compound A22, 5-(1H-pyrrolo[2,3-b]pyridin-5-ylethynyl)thiazol-4-ylamine]	10 to 100 µM	10 to 100 µM	0.01 to 1 µM	1 to 10 µM	> 1 µM	1 to 10 µM	> 1 µM	1 to 10 µM	1 to 10 µM	0.01 to 1 µM	1 to 10 µM	10 to 100 µM	9%	34%
